How the values were obtained:
Akt3 = Akt3 (Homo sapiens, UniProt Q9Y243); conditions: known from literature (Barnett 2005, Lindsley 2005, Zhao 2005); cited from earlier work
Akt2 = Akt2 (Homo sapiens, UniProt P31751); conditions: known from literature (Barnett 2005, Lindsley 2005, Zhao 2005); cited from earlier work
Akt1 = Akt1 (Homo sapiens, UniProt P31749); conditions: known from literature (Barnett 2005, Lindsley 2005, Zhao 2005); cited from earlier work
PANC-1 cells [1] = assay: Cell morphology / dead cells after siRNA knockdown in PANC-1 cells; format: cell-based; conditions: double knockdown compared with single
Method: (§1) 1×10^6 PANC-1 cells were plated on a 10 cm dish, and culturing was carried out in Roswell Park Memorial Institute 1640 (RPMI 1640, Sigma), to which 10% fetal bovine serum (Fetal bovine serum, FBS) and 5% L-glutamine were added, for 18 hours. Culturing conditions were 37° C. and 5% CO2 unless otherwise specified. Furthermore, 1×10^6 A549 cells were plated on a 10 cm dish, and culturing was carried out in Dulbecco's modified Eagle's medium (DMEM, Sigma), to which 10% FBS and 10% L-glutamine were added, for 18 hours. The respective media were replaced, and 2 hours later 20% to 30% confluent PANC-1 or A549 cells were transfected with GST-π siRNA and/or Akt siRNA using Lipofectamine RNAiMAX (Life Technologies).
A Lipofectamine/siRNA mixed solution for transfection was prepared as follows. First, 35 μL of Lipofectamine RNAiMAX and 965 μL of OPTI-MEM (Sigma) were mixed to thus prepare a Lipofectamine solution. […]
(§2) In order to test the effect when GST-π siRNA and Akt siRNA are made to act at the same time, a Lipofectamine/siRNA mixed solution in which GST-π siRNA and Akt siRNA were mixed was added to each of the cells in the same way as above, and the number of cells was counted. […]

A549 cells = assay: Cell proliferation (cell counting) after siRNA knockdown in A549 cells; format: cell-based; conditions: 10 to 50 nM siRNA tested, cell number 4 days after transfection, FIG. 2
Method: as §1, with “The respective media were replaced, and 2 hours later 20% to 30% confluent PANC-1 or A549 cells were transfected with GST-π siRNA and/or Akt siRNA using Lipofectamine RNAiMAX (Life Technologies).” left out
(§3) In order to optimize the concentration of siRNA, a final concentration of 10 to 50 nM of GST-π siRNA or Akt siRNA was added to a dish containing PANC-1 cells or A549 cells flushed with 10 mL of PTI-MEM, culturing was carried out at room temperature for 5 hours, the medium was replaced (RPMI 1640 containing 5% FBS for PANC-1 cells and DMEM containing 10% FBS for A549 cells), and culturing was carried out for 2 hours. […] Subsequently, every 24 hours, the cells were detached by treatment with trypsin and harvested from the dish, and the number of cells was counted.
as §2

PANC-1 cells [2] = assay: Cell proliferation (cell counting) after siRNA knockdown in PANC-1 cells; format: cell-based; conditions: 10 to 50 nM siRNA tested, cell number 4 days after transfection, FIG. 1
Method: as §1, with “The respective media were replaced, and 2 hours later 20% to 30% confluent PANC-1 or A549 cells were transfected with GST-π siRNA and/or Akt siRNA using Lipofectamine RNAiMAX (Life Technologies).” left out
as §3, §2

PANC-1 cells [3] = assay: Autophagy by western blot of LC3 type I/type II shift in PANC-1 cells; format: cell-based; conditions: each siRNA 10 nM, 3 days culture, FIG. 6
Method: 1×10^6 PANC-1 cells were plated on a 10 cm dish, and culturing was carried out in RPMI 1640, to which 10% FBS and 5% L-glutamine were added, for 24 hours. […] The cells on the dish were washed with ice-cooled PBS, and an ice-cooled Lysis buffer was then added to thus break the cells. The Lysis buffer was prepared by mixing 100 μL of NP-40 Alternative, PROTEIN GRADE® Detergent, 10% Solution, Sterile-Filtered (CALBIOCHEM), 500 μL of 1 M Tris-HCl (pH 7.5), 300 μL of 5 M NaCl, 20 μL of 0.5 M EDTA, and […] of sterile water. The cell lysate was collected using a cell scraper and ice-cooled for 30 minutes. During this process, inversion mixing was carried out every 10 minutes. The solution thus obtained was subjected to centrifugation at 15000 rpm and 4° C. for 15 minutes, and the supernatant was collected, thus giving a cell extract. This cell extract was subjected to western blot analysis. A reaction with a transfer membrane was carried out at 4° C. for 16 hours using anti-LC3B antibody (SIGMA) as a primary antibody. Detection of LC3 molecules was carried out using a chemiluminescent reagent after a reaction with HRP-labeled secondary antibody. Whether or not autophagy was induced was evaluated by a shift to LC3 type I (18 kDa) and type II (16 kDa).

Sequence of Akt3 (Q9Y243 whole entry, species assumed): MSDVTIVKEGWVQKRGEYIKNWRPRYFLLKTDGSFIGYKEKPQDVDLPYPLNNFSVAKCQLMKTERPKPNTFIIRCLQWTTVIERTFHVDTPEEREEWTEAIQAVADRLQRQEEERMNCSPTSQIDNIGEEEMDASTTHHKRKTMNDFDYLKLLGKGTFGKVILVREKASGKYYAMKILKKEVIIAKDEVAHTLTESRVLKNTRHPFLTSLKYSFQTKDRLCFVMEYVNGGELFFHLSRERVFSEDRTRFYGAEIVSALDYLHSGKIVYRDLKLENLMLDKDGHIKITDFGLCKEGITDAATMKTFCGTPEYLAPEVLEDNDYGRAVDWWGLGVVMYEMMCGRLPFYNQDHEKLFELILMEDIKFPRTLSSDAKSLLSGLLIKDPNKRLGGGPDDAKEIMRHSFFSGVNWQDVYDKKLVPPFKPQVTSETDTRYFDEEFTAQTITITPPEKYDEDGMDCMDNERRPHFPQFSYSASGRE
Sequence of Akt2 (P31751 whole entry, species assumed): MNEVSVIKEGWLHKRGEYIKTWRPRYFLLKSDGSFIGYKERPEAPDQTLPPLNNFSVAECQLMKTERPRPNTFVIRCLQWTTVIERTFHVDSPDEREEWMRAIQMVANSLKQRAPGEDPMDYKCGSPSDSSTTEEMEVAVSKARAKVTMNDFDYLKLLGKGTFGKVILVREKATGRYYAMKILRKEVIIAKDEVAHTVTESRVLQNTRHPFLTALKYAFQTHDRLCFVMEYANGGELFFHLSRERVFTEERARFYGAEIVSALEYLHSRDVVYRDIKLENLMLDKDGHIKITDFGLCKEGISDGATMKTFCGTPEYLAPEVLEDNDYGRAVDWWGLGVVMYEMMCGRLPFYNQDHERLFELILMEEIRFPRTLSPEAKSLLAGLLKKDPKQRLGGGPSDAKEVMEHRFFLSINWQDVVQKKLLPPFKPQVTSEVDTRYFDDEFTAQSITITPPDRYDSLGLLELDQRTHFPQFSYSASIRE
Sequence of Akt1 (P31749 whole entry): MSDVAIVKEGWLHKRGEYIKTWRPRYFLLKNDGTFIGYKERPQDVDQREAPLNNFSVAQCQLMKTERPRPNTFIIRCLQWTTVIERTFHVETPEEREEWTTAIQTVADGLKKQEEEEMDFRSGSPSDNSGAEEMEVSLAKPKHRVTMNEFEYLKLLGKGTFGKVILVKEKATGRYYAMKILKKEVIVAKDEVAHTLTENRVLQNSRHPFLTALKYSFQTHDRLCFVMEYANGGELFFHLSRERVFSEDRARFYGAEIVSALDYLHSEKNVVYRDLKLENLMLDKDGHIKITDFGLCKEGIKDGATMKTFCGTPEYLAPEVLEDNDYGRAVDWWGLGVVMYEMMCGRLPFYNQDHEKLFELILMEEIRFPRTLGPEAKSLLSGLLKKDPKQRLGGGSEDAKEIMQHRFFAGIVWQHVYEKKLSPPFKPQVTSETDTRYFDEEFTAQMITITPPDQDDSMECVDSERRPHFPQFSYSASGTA

Row | Compound | inhibition of Akt3 (Akt3) | effect on activation and phosphorylation of Akt2 (Akt2) | effect on activation and phosphorylation of Akt1 (Akt1) | dead cells (floating cells) (PANC-1 cells [1]) | final concentration at which the cell proliferation inhibition effect almost reaches a plateau (A549 cells) [nM] | final concentration at which the cell proliferation inhibition effect almost reaches a plateau (PANC-1 cells [2]) [nM] | autophagy (shift of LC3 type I to type II) (PANC-1 cells [3])
1 | O=c1[nH]c2ccccc2n1C1CCN(Cc2ccc(-c3nc4cc5[nH]cnc5cc4nc3-c3ccccc3)cc2)CC1 [Akt Inhibitor VIII, 1,3-Dihydro-1-(1-((4-(6-phenyl-1H-imidazo[4,5-g]quinoxalin-7-yl)phenyl)methyl)-4-piperidinyl)-2H-benzimidazol-2-one] | does not inhibit | selectively blocks activation and phosphorylation | selectively blocks activation and phosphorylation |  |  |  | 
2 | GST-π siRNA: siRNA against GST-π; sense GGGAGGCAAGACCUUCAUUtt (SEQ ID No: 1), antisense AAUGAAGGUCUUGCCUCCCtg (SEQ ID No: 2) (sense GGGAGGCAAGACCUUCAUUTT; antisense AAUGAAGGUCUUGCCUCCCTG; chemistry not given here) |  |  |  | a large number of floating cells (dead cells) | ~30 | ~30 | autophagy induced
